Reference: paper PMC12794188, “Maternal–Fetal Transfer and Toxicokinetics of 2,2′,5,5′-Tetrachlorobiphenyl, [^14C]-PCB52, Following Intratracheal Administration” (Chemical Research in Toxicology, 2025)

Experiments:
[1] = Metabolite extraction and analysis: parent PCB52 and metabolite fractions in tissues and urine after intratracheal [14C]-PCB52; format: in vivo, Sprague–Dawley rats; conditions: for PCB52 share of radioactivity over time / unmetabolized PCB52 share of radioactivity over time: over the 96 h period; for parent PCB52 share of radioactivity: maternal serum
Description: A complex mixture of confirmed and putative metabolites of PCBs has been reported in the literature. To quantify the metabolites of PCB52 in maternal serum, the developing fetus, liver, brain, lung, and adipose tissue in this study, we employed a series of liquid–liquid extractions with solvents of increasing polarity to separate phenolic, methyl sulfones, and glucuronate/sulfated metabolites. , Recovery experiments used available standards including parent PCB52, 4-OH-PCB52, 3-MeSO2-PCB52, and 4-MeSO2-PCB52 metabolites in biological samples. The levels of the parent compound PCB52 and its extractable metabolites in the samples were determined using a validated liquid scintillation counting method coupled with gas chromatography-electron capture detection (GC-ECD), following our previous protocol. , Individual extractable metabolite was separated using a series of liquid–liquid extractions, employing a graded array of solvents with incrementing polarity to facilitate the partitioning of the analytes according to their inherent lipophilic characteristics (Figure S4). Subsequently, individual fractions were classified into respective categories, including the parent PCB moiety, hydroxylated PCBs (OH-PCBs), methyl sulfonyl PCBs (MeSO2–PCBs), conjugated metabolites, and unextractable components.
Tissue samples (200–400 mg wet weight) were prepared for analysis through a two-step homogenization using 2 mL of hexane/acetone solvent (50% vol/vol). The resultant solution was centrifuged, and then the pellet underwent two successive extractions with 1.5 mL of dichloromethane (DCM), chloroform/methanol (50:50 vol/vol), methanol/water (50:50 vol/vol), and water, respectively. The supernatant from the DCM extraction contained hydroxylated metabolites, whereas the top fractions from the methanol/water extraction had conjugated PCB metabolites. The resultant supernatant from the hexane/acetone extraction was rinsed with Milli-Q water, then extracted with a 0.5 M potassium hydroxide (KOH) solution in 50% ethanol, and triple rinsed with 400 μL of hexane. The hydrophobic fraction was further purified by rinsing with 1 M hydrochloric acid (400 μL). Simultaneously, a plausible MeSO2–PCBs fraction was extracted with 500 μL of anhydrous DMSO, followed by triple hexane rinses (3 × 400 μL). The residual hydrophobic phase was quantified as native PCB52. The quantification of cold PCB52, OH-PCBs (as MeO-PCB derivatives), and MeSO2-PCBs standards in spiked samples was initially performed on a gas chromatograph (Agilent 6890N) equipped with a 63Ni μ-ECD detector and SLB-5MS capillary column (60 m × 0.25 mm I.D., 0.25 μm film thickness; Supelco, St Louis, MO). Subsequently, individual separated fractionation from [^14C]-PCB52-exposed tissue samples was transferred to a prepared scintillation vial, followed by the addition of 10 mL of cocktail solution and analysis by scintillation counter. Any quantifiable radioactivity in the residual pellet was treated as unextractable compounds.

[2] = Literature half-life of PCB52 following intravenous administration in male rats (Pu et al.); conditions: rat, in vivo, concentration–time data of Pu et al., read-out: half-life when Pu et al. data are fitted to a two-compartmental PK model

For `Clc1ccc(Cl)c(-c2cc(Cl)ccc2Cl)c1` [PCB52, 2,2′,5,5′-Tetrachlorobiphenyl], the “PCB52 share of radioactivity over time” value ([1]; adipose tissue) was 66.0 to 96.8%, the “unmetabolized PCB52 share of radioactivity over time” value ([1]; brain) was 74.4 to 60.2% and the “PCB52 share of radioactivity over time” value ([1]; fetal tissues) was 54.1 to 27.7%. The “unmetabolized PCB52 share of radioactivity over time” value ([1]; liver) was 64.0 to 37.3%, the “parent PCB52 share of radioactivity” value ([1]; 0.21 h) was 69.4% and the “parent PCB52 share of radioactivity” value ([1]; 96 h) was 6.8%. The “PCB52 share of radioactivity over time” value ([1]; placenta) was 67.8 to 28.6%, the “parent compound in urine” value ([1]; urine) was “no detectable parent compound” and the half-life [2] was 36 to 48 h.
